# US9469650B2, “Melampomagnolide B derivatives” (BOARD OF TRUSTEES OF THE UNIVERSITY OF ARKANSAS, priority 2013, dated 2016)
# Like-named read-outs stand apart in the source and are kept apart here.
# Tests used:
# AML 052308 cells [1] = system: AML 052308 cells
# Text: (§1) Derivatives were screened for antileukemic activity against AML cells in culture (See FIGS. 1-7).
# AML 052308 cells [2] = assay: cells; settings: read-out: LC50
# Text: as §1
# [3] = system: AML 123009 primary isolate; assay: antileukemic activity, cell viability
# [4] = system: AML 100510 primary isolate; assay: antileukemic activity, cell viability
# M9 ENL cells = assay: antileukemic activity, cell viability; settings: M9 ENL cell line
# Experimental: Carbamate and carbonate derivatives of MMB were also screened for activity against M9 ENL cells at concentrations of 5, 10 and 20 μM (FIG. 10). […] Additionally, succinic amide derivatives of MMB were screened for activity against M9 ENL cells at concentrations of 5, 10 and 20 μM (FIG. 11).
# NCI-H522 [5] = settings: values obtained from NCI database; cited from earlier work
# MOLT-4 [6] = settings: values obtained from NCI database; cited from earlier work
# SF-539 [7] = settings: values obtained from NCI database; cited from earlier work
# TK-10 [8] = settings: values obtained from NCI database; cited from earlier work
# T-47D [9] = settings: values obtained from NCI database; cited from earlier work
# MCF7 [10] = settings: values obtained from NCI database; cited from earlier work
# RPMI-8226 [11] = settings: values obtained from NCI database; cited from earlier work
# K-562 [12] = settings: values obtained from NCI database; cited from earlier work
# CCRF-CEM [13] = settings: values obtained from NCI database; cited from earlier work
# BT-549 [14] = settings: values obtained from NCI database; cited from earlier work
# HOP-92 [15] = settings: values obtained from NCI database; cited from earlier work
# IGROV1 [16] = settings: values obtained from NCI database; cited from earlier work
# COLO 205 [17] = settings: values obtained from NCI database; cited from earlier work
# RXF 393 [18] = settings: values obtained from NCI database; cited from earlier work
# SW-620 [19] = settings: values obtained from NCI database; cited from earlier work
# ACHN [20] = settings: values obtained from NCI database; cited from earlier work
# CAKI-1 [21] = settings: values obtained from NCI database; cited from earlier work
# LOX IMVI [22] = settings: values obtained from NCI database; cited from earlier work
# MDA-MB-435 [23] = settings: values obtained from NCI database; cited from earlier work
# OVCAR-3 [24] = settings: values obtained from NCI database; cited from earlier work
# M14 [25] = settings: values obtained from NCI database; cited from earlier work
# HCT-116 [26] = settings: values obtained from NCI database; cited from earlier work
# HL-60(TB) [27] = settings: values obtained from NCI database; cited from earlier work
# DU-145 [28] = settings: values obtained from NCI database; cited from earlier work
# ACHN [29] = assay: panel of 60 human tumor cell lines, growth inhibition (Renal Cancer); settings: Homo sapiens
# COLO 205 [30] = assay: panel of 60 human tumor cell lines, growth inhibition (Colon Cancer); settings: Homo sapiens, COLO 205
# OVCAR-3 [31] = assay: panel of 60 human tumor cell lines, growth inhibition (Ovarian Cancer); settings: Homo sapiens, OVCAR-3
# SF-539 [32] = assay: panel of 60 human tumor cell lines, growth inhibition (CNS Cancer); settings: Homo sapiens, SF-539
# RPMI-8226 [33] = assay: panel of 60 human tumor cell lines, growth inhibition (Leukemia); settings: Homo sapiens, RPMI-8226
# CCRF-CEM [34] = assay: as above; settings: Homo sapiens
# DU-145 [35] = assay: panel of 60 human tumor cell lines, growth inhibition (Prostate Cancer); settings: Homo sapiens, DU-145
# MCF7 [36] = assay: panel of 60 human tumor cell lines, growth inhibition (Breast Cancer); settings: Homo sapiens, MCF7, MCF7; 5-dose assay
# CAKI-1 [37] = assay: panel of 60 human tumor cell lines, growth inhibition (Renal Cancer); settings: Homo sapiens, CAKI-1
# NCI-H522 [38] = assay: panel of 60 human tumor cell lines, growth inhibition (Non-Small Cell Lung Cancer); settings: Homo sapiens, NCI-H522
# MOLT-4 [39] = assay: panel of 60 human tumor cell lines, growth inhibition (Leukemia); settings: Homo sapiens, MOLT-4
# MALME-3M = assay: panel of 60 human tumor cell lines, growth inhibition (Melanoma); settings: Homo sapiens, Malme-3M
# K-562 [40] = assay: panel of 60 human tumor cell lines, growth inhibition (Leukemia); settings: Homo sapiens, K562
# BT-549 [41] = assay: panel of 60 human tumor cell lines, growth inhibition (Breast Cancer); settings: Homo sapiens, BT-549
# LOX IMVI [42] = assay: panel of 60 human tumor cell lines, growth inhibition (Melanoma); settings: Homo sapiens, 5-dose assay
# SW-620 [43] = assay: panel of 60 human tumor cell lines, growth inhibition (Colon Cancer); settings: Homo sapiens, SW-620, SW-620; 5-dose assay
# SNB-75 = assay: panel of 60 human tumor cell lines, growth inhibition (CNS Cancer); settings: Homo sapiens, SNB-75
# MDA-MB-468 = assay: panel of 60 human tumor cell lines, growth inhibition (Breast Cancer); settings: Homo sapiens, MDA-MB-468
# HL-60(TB) [44] = assay: cells; settings: Homo sapiens, HL-60
# MDA-MB-435 [45] = assay: panel of 60 human tumor cell lines, growth inhibition (Melanoma); settings: Homo sapiens, MDA-MB-435
# TK-10 [46] = assay: panel of 60 human tumor cell lines, growth inhibition (Renal Cancer); settings: Homo sapiens, TK-10, TK-10; 5-dose assay
# HOP-92 [47] = assay: panel of 60 human tumor cell lines, growth inhibition (Non-Small Cell Lung Cancer); settings: Homo sapiens, HOP-92, HOP-92; 5-dose assay
# T-47D [48] = assay: panel of 60 human tumor cell lines, growth inhibition (Breast Cancer); settings: Homo sapiens, T47D
# HCT-116 [49] = assay: panel of 60 human tumor cell lines, growth inhibition (Colon Cancer); settings: Homo sapiens, HCT-116, HCT-116; 5-dose assay
# RXF 393 [50] = assay: panel of 60 human tumor cell lines, growth inhibition (Renal Cancer); settings: Homo sapiens, RXF 393, RXF 393; 5-dose assay
# M14 [51] = assay: panel of 60 human tumor cell lines, growth inhibition (Melanoma); settings: Homo sapiens, M14
# IGROV1 [52] = assay: panel of 60 human tumor cell lines, growth inhibition (Ovarian Cancer); settings: Homo sapiens, IGROV-1
# [53] = system: panel of 60 human tumor cell lines; assay: panel of 60 human tumor cell lines, whole panel or sub-panel (single concentration screen, summaries); type: cell-based; settings: range over 6a and 6e
# [54] = hydrolytic stability in human plasma; type: in vitro ADME
# SR = assay: panel of 60 human tumor cell lines, growth inhibition (Leukemia); settings: Homo sapiens
smiles,measurement,setting,value
C=C1C(=O)O[C@H]2[C@H]1CC/C(COC(=O)NCCCn1ccnc1)=C\CC[C@@]1(C)O[C@@H]21 [JVM 58],cytotoxicity compared to MMB,AML 052308 cells [1],less active than MMB
C=C1C(=O)O[C@H]2[C@H]1CC/C(COC(=O)NCc1ccccn1)=C\CC[C@@]1(C)O[C@@H]21 [JVM 74],cytotoxicity compared to MMB,AML 052308 cells [1],almost equal cytotoxicity to MMB
"C=C1C(=O)OC2C1CC/C(CO)=C\CCC1(C)OC21 (centres unmarked) [MMB, Melampomagnolide B]",CC50,AML 052308 cells [2],16000 nM
"C=C1C(=O)O[C@H]2[C@H]1CC/C(COC(=O)NCCCn1ccnc1)=C\CC[C@@]1(C)O[C@@H]21 [6f, ((1aR,7aS,10aS,10bS,E)-1a-methyl-8-methylene-9-oxo-1a,2,3,6,7,7a,8,9,10a,10b-decahydrooxireno[2′,3′:9,10]cyclodeca[1,2-b]furan-5-yl)methyl-(3-(1H-imidazol-1-yl)-propyl)carbamate]",melting point,,70 °C
"C=C1C(=O)O[C@H]2[C@H]1CC/C(COC(=O)NCCCN1CCOCC1)=C\CC[C@@]1(C)O[C@@H]21 [6g, ((1aR,7aS,10aS,10bS,E)-1a-methyl-8-methylene-9-oxo-1a,2,3,6,7,7a,8,9,10a,10b-decahydrooxireno[2′,3′:9,10]-cyclodeca[1,2-b]furan-5-yl)methyl-(3-morpholinopropyl)carbamate]",melting point,,60 °C
C=C1C(=O)O[C@H]2[C@H]1CC/C(COC(=O)CCN1CCCCC1)=C\CC[C@@]1(C)O[C@@H]21 [JVM 88],antileukemic activity compared to MMB,[3],good antileukemic activity compared to MMB
same,antileukemic activity compared to MMB,[4],good antileukemic activity compared to MMB
same,antileukemic activity compared to MMB,M9 ENL cells,good antileukemic activity compared to MMB
"C/C1=C\CC[C@@]2(C)O[C@@H]2[C@H]2OC(=O)[C@H](CN(C)C)[C@@H]2CC1 [DMAPT, dimethylaminoparthenolide]",GI50,NCI-H522 [5],2510 nM
same,GI50,MOLT-4 [6],3160 nM
same,GI50,SF-539 [7],2510 nM
same,GI50,TK-10 [8],3160 nM
same,GI50,T-47D [9],39800 nM
same,GI50,MCF7 [10],5010 nM
same,GI50,RPMI-8226 [11],2510 nM
same,GI50,K-562 [12],2510 nM
same,GI50,CCRF-CEM [13],1990 nM
same,GI50,BT-549 [14],5010 nM
same,GI50,HOP-92 [15],10000 nM
same,GI50,IGROV1 [16],19900 nM
same,GI50,COLO 205 [17],31600 nM
same,GI50,RXF 393 [18],15800 nM
same,GI50,SW-620 [19],3980 nM
same,GI50,ACHN [20],15800 nM
same,GI50,CAKI-1 [21],12500 nM
same,GI50,LOX IMVI [22],10000 nM
same,GI50,MDA-MB-435 [23],7940 nM
same,GI50,OVCAR-3 [24],12500 nM
same,GI50,M14 [25],15800 nM
same,GI50,HCT-116 [26],5010 nM
same,GI50,HL-60(TB) [27],1580 nM
same,GI50,DU-145 [28],5010 nM
"C=C1C(=O)O[C@H]2[C@H]1CC/C(COC(=O)N1CCC(F)(F)CC1)=C\CC[C@@]1(C)O[C@@H]21 [6a, ((1aR,7aS,10aS,10bS,E)-1a-methyl-8-methylene-9-oxo-1a,2,3,6,7,7a,8,9,10a,10b-decahydrooxireno[2′,3′:9,10]cyclodeca[1,2-b]furan-5-yl)methyl-4,4-difluoropiperidine-1-carboxylate]",GI50,ACHN [29],1790 nM
same,GI50,COLO 205 [30],2060 nM
same,GI50,OVCAR-3 [31],1690 nM
same,GI50,SF-539 [32],1980 nM
same,GI50,RPMI-8226 [33],1980 nM
same,GI50,CCRF-CEM [34]; 5-dose assay,680 nM
same,GI50,CCRF-CEM [34]; leukemia cell line CCRF-CEM,680 nM
same,GI50,DU-145 [35],2440 nM
same,GI50,MCF7 [36],1620 nM
same,GI50,CAKI-1 [37],2030 nM
same,GI50,NCI-H522 [38],1250 nM
same,GI50,MOLT-4 [39],2050 nM
same,GI50,MALME-3M,1900 nM
same,GI50,K-562 [40],3450 nM
same,GI50,BT-549 [41],2690 nM
same,GI50,LOX IMVI [42],2230 nM
same,GI50,SW-620 [43],1460 nM
same,GI50,SNB-75,6130 nM
same,melting point,,150 °C
same,GI50,MDA-MB-468,570 nM
same,GI50,HL-60(TB) [44],2040 nM
same,GI50,MDA-MB-435 [45],460 nM
same,GI50,TK-10 [46],2600 nM
same,GI50,HOP-92 [47],1450 nM
same,GI50,T-47D [48],3070 nM
same,GI50,HCT-116 [49],1410 nM
same,GI50,RXF 393 [50],1200 nM
same,GI50,M14 [51],2840 nM
same,GI50,IGROV1 [52],2310 nM
same,GI50,[53]; sub-panel breast cancer,570 to 3070 nM
same,GI50,[53]; sub-panel colon cancer,1120 to 2060 nM
same,GI50,[53]; sub-panel melanoma,460 to 2840 nM
same,GI50,[53]; sub-panel non-small cell lung cancer,650 to 1450 nM
same,GI50,[53]; sub-panel renal cancer,900 to 2600 nM
same,half-life,[54],8 h
same,GI50,SR,1380 nM
